Laboratory results reported in PMC6679423 (International Journal of Molecular Sciences, 2019).

How the values were obtained:
Type in all cases: in vitro ADME
human recombinant CYP3A4 = biological target: T1, human recombinant CYP3A4 (Homo sapiens, UniProt P08684); assay: Vandetanib oxidation by human recombinant CYP3A4 (Supersomes)
T1 construct: purchased Gentest Corp; host or cells: insect cells (baculovirus)
Description: The purity of all chemicals met the standards of American Chemical Society, unless noted otherwise. […] Animals were placed in cages in temperature- and humidity-controlled rooms, acclimatized for five days and maintained at 22 °C with a 12 h light/dark period. Standardized diet and water were provided ad libitum. Rats, mice and rabbits used to prepare microsomal fraction from untreated animals were sacrificed by cervical dislocation, livers snap-frozen in liquid nitrogen and stored at −80 °C until further processing (see below). For controls, livers of the animals were removed immediately after sacrifice, divided into small pieces (~1 g), snap-frozen in liquid nitrogen, and stored at −80 °C until isolation of microsomal fractions. Pooled microsomes were used for all in vitro experiments in the present study and prepared from 10 livers/group for all animal species following established protocols. Microsomal fractions were stored at −80 °C until analysis. Protein concentrations in the microsomal fractions were assessed using the bicinchoninic acid protein assay with bovine serum albumin as a standard. […] Microsomes from livers of twelve human donors were obtained from Gentest Corp. (Woburn, MA, USA) (cat. no. HG43–1, HG103, HG74, HG93, HG24, HG27, HG23, HG32, HK31, HK34, HG03, and HG42). […]

human recombinant CYP1A1 = biological target: T2, human recombinant CYP1A1 (Homo sapiens, UniProt P04798); assay: Vandetanib oxidation by human recombinant CYP1A1 (Supersomes)
T2 construct: purchased Gentest Corp; host or cells: insect cells (baculovirus)
T2 sequence (P04798 1-512): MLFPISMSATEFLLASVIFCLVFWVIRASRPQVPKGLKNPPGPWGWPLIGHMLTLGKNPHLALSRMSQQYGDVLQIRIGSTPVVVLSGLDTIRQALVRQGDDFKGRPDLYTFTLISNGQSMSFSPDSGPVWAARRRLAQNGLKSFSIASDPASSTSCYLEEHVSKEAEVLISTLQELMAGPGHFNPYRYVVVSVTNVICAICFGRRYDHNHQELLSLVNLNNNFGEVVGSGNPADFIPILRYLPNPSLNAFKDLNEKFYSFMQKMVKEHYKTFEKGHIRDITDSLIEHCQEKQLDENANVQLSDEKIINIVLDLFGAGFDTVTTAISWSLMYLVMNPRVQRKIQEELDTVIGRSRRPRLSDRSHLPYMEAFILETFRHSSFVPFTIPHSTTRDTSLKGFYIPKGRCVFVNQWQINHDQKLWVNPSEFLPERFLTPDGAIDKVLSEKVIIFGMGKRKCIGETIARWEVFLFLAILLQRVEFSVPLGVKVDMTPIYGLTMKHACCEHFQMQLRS
Description: Vandetanib was from LC Laboratories (Woburn, MA, USA). Ketoconazole, NADPH, methimazol and other chemicals were all purchased from Sigma-Aldrich (St. Louis, MO, USA). The purity of all chemicals met the standards of American Chemical Society, unless noted otherwise. All animal experiments were conducted in accordance with the Regulations for the Care and Use of Laboratory Animals (311/1997, Ministry of Agriculture, Czech Republic), which follows the Declaration of Helsinki. Male Wistar rats (~125–150 g; AnLab, Czech Republic), male C57BL/6 mice ([…]; CXR Bioscience Ltd., Dundee, UK), and male New Zealand rabbits (2.5–3 kg; AnLab, Czech Republic) were employed as animal models. Animals were placed in cages in temperature- and humidity-controlled rooms, acclimatized for five days and maintained at 22 °C with a 12 h light/dark period. Standardized diet and water were provided ad libitum. Rats, mice and rabbits used to prepare microsomal fraction from untreated animals were sacrificed by cervical dislocation, livers snap-frozen in liquid nitrogen and stored at −80 °C until further processing (see below). For controls, livers of the animals were removed immediately after sacrifice, divided into small pieces (~1 g), snap-frozen in liquid nitrogen, and stored at −80 °C until isolation of microsomal fractions. Pooled microsomes were used for all in vitro experiments in the present study and prepared from 10 livers/group for all animal species following established protocols. Microsomal fractions were stored at −80 °C until analysis. Protein concentrations in the microsomal fractions were assessed using the bicinchoninic acid protein assay with bovine serum albumin as a standard. Male human hepatic microsomes (pooled sample) (sample LOT: 3043885) were from Gentest Corp. (Woburn, MA, USA). Microsomes from livers of twelve human donors were obtained from Gentest Corp. (Woburn, MA, USA) (cat. no. HG43–1, HG103, HG74, HG93, HG24, HG27, HG23, HG32, HK31, HK34, HG03, and HG42). Each human microsomal sample has been characterized for CYP, FMO and protein contents and specific CYP activities by Gentest Corp. We reanalyzed each microsomal preparation for specific CYP, NADPH:CYP reductase (POR) and FMO activities by assays described in the protocols of Gentest Corp. Our data were similar to those reported by Gentest Corp. in their specification sheets. […]

human recombinant CYP3A5 = assay: Vandetanib oxidation by human recombinant CYP3A5 (Supersomes)
Description: Vandetanib was from LC Laboratories (Woburn, MA, USA). Ketoconazole, NADPH, methimazol and other chemicals were all purchased from Sigma-Aldrich (St. Louis, MO, USA). The purity of all chemicals met the standards of American Chemical Society, unless noted otherwise. All animal experiments were conducted in accordance with the Regulations for the Care and Use of Laboratory Animals (311/1997, Ministry of Agriculture, Czech Republic), which follows the Declaration of Helsinki. Male Wistar rats (~125–150 g; AnLab, Czech Republic), male C57BL/6 mice ([…]; CXR Bioscience Ltd., Dundee, UK), and male New Zealand rabbits (2.5–3 kg; AnLab, Czech Republic) were employed as animal models. Animals were placed in cages in temperature- and humidity-controlled rooms, acclimatized for five days and maintained at 22 °C with a 12 h light/dark period. Standardized diet and water were provided ad libitum. Rats, mice and rabbits used to prepare microsomal fraction from untreated animals were sacrificed by cervical dislocation, livers snap-frozen in liquid nitrogen and stored at −80 °C until further processing (see below). […] Protein concentrations in the microsomal fractions were assessed using the bicinchoninic acid protein assay with bovine serum albumin as a standard. […]

[1] = without consideration of cytochrome b5

T1 sequence (P08684 2-503 limits assumed): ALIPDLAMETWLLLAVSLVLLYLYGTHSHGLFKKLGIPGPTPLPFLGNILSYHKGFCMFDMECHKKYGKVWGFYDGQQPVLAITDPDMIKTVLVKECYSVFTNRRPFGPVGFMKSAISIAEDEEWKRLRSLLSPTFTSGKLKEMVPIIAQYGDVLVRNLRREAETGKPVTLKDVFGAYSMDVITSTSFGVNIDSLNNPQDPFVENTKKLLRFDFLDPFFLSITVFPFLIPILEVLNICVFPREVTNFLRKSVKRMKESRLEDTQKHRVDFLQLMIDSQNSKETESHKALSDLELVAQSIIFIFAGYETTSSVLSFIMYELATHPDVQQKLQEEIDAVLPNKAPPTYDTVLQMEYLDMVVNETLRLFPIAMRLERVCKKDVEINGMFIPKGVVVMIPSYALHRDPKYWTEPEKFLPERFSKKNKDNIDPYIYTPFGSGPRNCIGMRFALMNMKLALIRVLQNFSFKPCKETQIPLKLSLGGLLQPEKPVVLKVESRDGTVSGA

In the case of `COc1cc2c(Nc3ccc(Br)cc3F)ncnc2cc1OCC1CCNCC1` [N-desmethylvandetanib], the “contribution of CYP3A4 to N-desmethylvandetanib formation in human liver” value (human recombinant CYP3A4; with cytochrome b5) is reported as ~ 99.6%, the “contribution of CYP3A4 to N-desmethylvandetanib formation in human liver” value (human recombinant CYP3A4; [1]) is reported as ~ 97.7% and the “effect of cytochrome b5 on N-desmethylvandetanib formation” value (human recombinant CYP1A1; CYP1A1 with vs without cytochrome b5) is reported as “essentially no such effect”. For the same molecule, the “contribution of CYP1A1 to N-desmethylvandetanib formation in human liver” value (human recombinant CYP1A1; [1]) was less than 0.3%, the “fold increase of N-desmethylvandetanib formation by cytochrome b5” value (human recombinant CYP3A5; CYP3A5 with vs without cytochrome b5) was 7 fold and the “contribution of CYP3A5 to N-desmethylvandetanib formation in human liver” value (human recombinant CYP3A5; [1]) was less than 0.3%.
